“And” between values parts separate entries of the source, which are not always exact repeats. Identical values can stand only once.
Legend:
Ter119+ erythroblasts = experiment: Ter119+ erythroblast expansion from murine Lin-Kit+ HSPCs (tet-shRPS19, RPL11+/lox); assay type: cell-based, mouse
Method: FIG. 8. NLK inhibition increases expansion of erythroid progenitors from human and murine models of DBA. Human cord blood CD34+ progenitors were transduced with lentivirus co-expressing GFP with shRNA against luciferase (shLuc), RPS19 (shRPS19) or RPL11 (shRPL11). After 36 hours cells GFP+ cells were differentiated in erythroid media in the presence or absence of 5 μM SD208 for 15 days. Cells were counted and assessed for cell surface expression of CD235. (a) The percentage of CD235+ cells was multiplied by the cell count and values were compared as a percentage of untreated controls. (b) Normalizing values relative to untreated RPS19-insufficiency progenitors facilitates direct comparison of erythropoiesis between untreated and SD208-treated cultures. (c) Approximately 3000 cells were removed from differentiating treatments at day 6 and NLK activity was assessed. Values were normalized to reflect a fold induction relative to untreated controls. (d) Lin-Kit+ hematopoietic progenitors were obtained from three mouse embryos expressing tetracycline-inducible shRNA against RPS19 at day E14.5 or three untreated mice, and thee mature RPL11^+/+ or three mature RPL11^+/lox mice treated with tamoxifen for eight weeks. Cells were grown in the presence or absence of doxycycline and/or SD208 for eight days prior to counting and assessing for ter119 surface expression. Values were expressed as a percentage relative to untreated controls (e) and directly comparing the effect of SD208 on erythropoiesis in ribosomal-insufficiency by expressing values relative to untreated ribosome-insufficient cultures (f). At day 5 approximately 3000 cells were assayed for NLK kinase assay (g). CD34+ HSPCs were isolated from three healthy control and three DBA patient mononuclear bone marrow aspirates by magnetic bead sorting and differentiated in the presence or absence of SD208 for 14 days. After counting the total cell population, the ratio of CD235+ erythroblasts was determined by flow cytometry and number of CD235+ erythroblasts calculated. This was expressed as a percentage of the average number of erythroid cells present in untreated healthy controls. (h) The direct effect of SD208 on erythroid expansion in DBA patient samples was calculated following normalization of untreated DBA patient samples as 1-fold, (i) At day five, 3000 cells from each of the differentiating cultures was analyzed for NLK activity by kinase assay and are expressed as a fold induction relative to untreated healthy controls.
FIG. 11. Metformin improves erythropoiesis in zebrafish model of DBA but not murine models. (Panel A, left portion) Murine fetal liver Kit+ progenitors expressing tetracycline-regulatable shRNA against RPS19 were cultured in the absence (grey columns) or presence (black columns) of doxycycline either alone, or treated with metformin. After 8 days, the number of ter119+ erythroblasts were calculated. (A right) RPL11+/lox mice were left untreated (grey columns) or treated (black columns) with tamoxifen for 5 weeks prior to isolation of bone marrow Lin-Kit+ progenitors. Progenitors were differentiated in the presence or absence of metformin for 8 days before assessing the number of Ter119+ erythroblasts. (Panel B) In conjunction with flow cytometry, cultures were subjected to qRT-PCR for NLK expression and (Panel C) kinase NLK kinase activity was assessed by in vitro kinase assay. […]

NLK 3′UTR = experiment: Luciferase fused to NLK 3′UTR in differentiating HSPCs; assay type: cell-based, human
Method: We generated a series of truncated NLK 3′UTRs fused to the luciferase gene and transduced them into control and RPS19-insufficient differentiating HSPCs. Cells were treated with increasing concentrations of ginsenoside Rb1 or metformin and luciferase activity assessed.

murine NLK 3′UTR = experiment: Luciferase fused to murine NLK 3′UTR in K562 cells; assay type: cell-based, mouse; conditions: transient transfection in K562, metformin 72 hrs
[1] = system: miR-26a and other miRNAs (let-7, miR-30, miR-181, miR-199, miR-144); experiment: miRNA expression by qRT-PCR in differentiating human CD34+ progenitors; assay type: cell-based
Method: FIG. 14. Metformin-mediated upregulation of miR-26a in human progenitors suppresses NLK expression. (Panel A) Human CD34+ (upper) and murine Lin-Kit+ (lower) progenitors were differentiated for 8 days in the presence or absence of metformin and the levels of indicated miRNAs were assessed by qRT-PCR. (Panel B) K562 cells stably expressing the luciferase gene coupled to the NLK 3′UTR were mock transfected, transfected with indicated miRNA mimetics, or treated with metformin, and cultured in the presence or absence of metformin for 72 hrs. After lysis, luciferase activity was determined and endogenous NLK and GAPDH protein expression was analyzed by Western blot. (Panel C) K562 cells were mock transfected, or transfected with either miR-34 or miR-26 sponges, prior to being left untreated or treated with metformin for 72 hrs. Lysed cells were subjected to luciferase assay and western blotting to examine NLK and GAPDH protein expression. […] Statistics: two-tailed Student's t test, significant *P<0.05
FIG. 15. MiR-26a mimetic substitutes for metformin in improving erythropoiesis in RPS19-insufficiency. (Panel A) Human CD34+ cells were transduced with shRNA against a control (shLuc) or RPS19 (shRPS19) and transfected with a miR-26a mimetic or a mock control. After differentiation in the absence or presence of metformin for 12 days, cells were counted and the percentage of CD235+ erythroblasts determined by flow cytometry. The calculated CD235+ population of each treatment group is represented as a percentage of the untreated control group (upper). In parallel, qRT-PCR was performed to determine mRNA expression of NLK (middle) and miR-26a (lower). (Panel B) Lin-Kit+ progenitors for RPL11+/+ and RPL+/lox mice were mock transfected or transfected with miR-26a mimetic and differentiated for 8 days. Cells were subjected to counting and the percentage of Ter119+ erythroblasts determined (upper) in conjunction with qRT-PCR examining NLK (middle) and miR-26a (lower) mRNA expression. […] Statistics: two-tailed Student's t test, significant *P<0.05
MessengerRNA was quantified as described (5). MicroRNA was quantified using TaqMan® Small RNA Assays (Applied Biosystems) as per manufacturer's directions and normalized to snoRNA.

With Fc1ccc(Cl)cc1-c1nc(Nc2ccncc2)c2nccnc2n1 [SD208] the “erythropoiesis, % of controls” value (Ter119+ erythroblasts; RPL11+/lox bone marrow HSPCs of three mice, SD208, 8 days, 31.2, 26.4, 18.6% without SD208) was 57.3% and 56.8% and 50.3%, the “fold increase of erythropoiesis in response to SD208” value (Ter119+ erythroblasts; murine RPL11-insufficiency) was 2.29 fold and the “fold increase of erythropoiesis in response to SD208” value (Ter119+ erythroblasts; murine RPS19-insufficiency) was 3.88 fold. For the same compound, the “Ter119+ erythroblasts, % of populations differentiated without doxycycline” value (Ter119+ erythroblasts; tet-shRPS19 fetal liver HSPCs of three mice, doxycycline + SD208, 8 days, 24.3, 20.3, 18.5% without SD208) was 83.2% and 81.1% and 76.6%.

CC(C)=CCC[C@](C)(O[C@@H]1O[C@H](CO[C@@H]2O[C@H](CO)[C@@H](O)[C@H](O)[C@H]2O)[C@@H](O)[C@H](O)[C@H]1O)[C@H]1CC[C@]2(C)[C@@H]1[C@H](O)C[C@@H]1[C@@]3(C)CC[C@H](O[C@@H]4O[C@H](CO)[C@@H](O)[C@H](O)[C@H]4O[C@@H]4O[C@H](CO)[C@@H](O)[C@H](O)[C@H]4O)C(C)(C)[C@@H]3CC[C@]12C [ginsenoside Rb1] was tested, and the “reduction of luciferase activity (NLK 3′UTR)” value (NLK 3′UTR; 50 mM ginsenoside Rb1) was 35.9%.

In the case of CN(C)C(=N)N=C(N)N [metformin], the “rescue of Ter119+ erythroblast expansion” value (Ter119+ erythroblasts; murine RPS19- or RPL11-insufficiency, metformin, 8 days) is reported as “did not rescue”, the “decrease of luciferase activity, murine 3′UTR” value (murine NLK 3′UTR) is reported as 61.6% and the miR-26a level ([1]; RPS19-insufficiency) is reported as 2.5 fold. For the same compound, the miR-26a level ([1]; control) was 2.4 fold, the “upregulation of miR-26a” value ([1]; human CD34+ progenitors in erythroid media, metformin, 8 days) was 2.4 fold and the “expression of other miRNA species (let-7, miR-30, miR-181, miR-199, miR-144)” value ([1]; human CD34+ progenitors, metformin) was “did not alter”. For the same compound, the “reduction of luciferase activity (NLK 3′UTR)” value (NLK 3′UTR; metformin) was 67.5%.

From patent publication US12403132B2, “Methods of treating bone marrow failure syndromes and compositions for use in the same” (The Board of Trustees of the Leland Stanford Junior …, priority 2020, dated 2025)
